Measured values from ChEMBL document CHEMBL1128558, “Effect of bridge region variation on antifolate and antitumor activity of classical 5-substituted 2,4-diaminofuro[2,3-d]pyrimidines” (J Med Chem, 1995).

Columns and labels:
Dihydrofolate reductase [1] = biological target: T1, Dihydrofolate reductase (Homo sapiens, UniProt P00374); assay: Inhibitory concentration against recombinant human DHFR(Dihydro folate reductase).
T1 sequence (P00374 whole entry): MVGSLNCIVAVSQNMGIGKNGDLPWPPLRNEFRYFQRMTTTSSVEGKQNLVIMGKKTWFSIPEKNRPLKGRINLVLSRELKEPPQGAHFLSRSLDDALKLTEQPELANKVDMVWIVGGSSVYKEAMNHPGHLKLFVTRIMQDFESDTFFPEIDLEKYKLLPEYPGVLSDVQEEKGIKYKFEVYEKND

Thymidylate synthase [2] = biological target: T2, Thymidylate synthase (Lactobacillus casei, UniProt P00469); assay: Inhibitory concentration against Lactobacillus casei TS (Thymidylate synthase).; parameters: species or system Lacticaseibacillus casei
T2 sequence (P00469 whole entry): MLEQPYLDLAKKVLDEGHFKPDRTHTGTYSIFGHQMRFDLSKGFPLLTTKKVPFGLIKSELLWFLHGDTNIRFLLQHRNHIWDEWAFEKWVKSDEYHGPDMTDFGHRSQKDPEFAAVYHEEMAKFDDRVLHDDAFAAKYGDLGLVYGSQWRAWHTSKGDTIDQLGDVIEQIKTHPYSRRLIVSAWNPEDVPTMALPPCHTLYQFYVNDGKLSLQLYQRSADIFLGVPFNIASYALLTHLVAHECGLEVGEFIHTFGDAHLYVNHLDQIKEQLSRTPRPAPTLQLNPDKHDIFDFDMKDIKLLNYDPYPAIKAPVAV

Thymidylate synthase [3] = biological target: Thymidylate synthase (Homo sapiens, UniProt P04818); assay: Inhibitory concentration against recombinant human TS (Thymidylate synthase).
Thymidylate synthase (Homo sapiens, UniProt P04818), sequence (P04818 whole entry): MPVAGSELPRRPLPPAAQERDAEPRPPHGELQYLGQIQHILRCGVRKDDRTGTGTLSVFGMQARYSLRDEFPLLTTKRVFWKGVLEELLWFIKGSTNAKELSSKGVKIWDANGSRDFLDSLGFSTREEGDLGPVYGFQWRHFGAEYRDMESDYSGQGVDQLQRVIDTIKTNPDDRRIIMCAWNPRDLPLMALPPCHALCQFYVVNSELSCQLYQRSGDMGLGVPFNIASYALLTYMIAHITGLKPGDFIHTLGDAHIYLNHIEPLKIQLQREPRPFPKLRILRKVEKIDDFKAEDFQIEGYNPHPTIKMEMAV

Dihydrofolate reductase [4] = biological target: Dihydrofolate reductase (Lactobacillus casei, UniProt P00381)
Dihydrofolate reductase (Lactobacillus casei, UniProt P00381), sequence (P00381 whole entry): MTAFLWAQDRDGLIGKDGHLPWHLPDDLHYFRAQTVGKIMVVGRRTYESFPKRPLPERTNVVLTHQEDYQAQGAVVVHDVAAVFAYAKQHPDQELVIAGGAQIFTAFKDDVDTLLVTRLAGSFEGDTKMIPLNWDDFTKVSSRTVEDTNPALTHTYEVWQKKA
Description: inhibitory concentration against Lactobacillus casei DHFR(Dihydro folate reductase).

CCRF-CEM [5] = assay: he compound was tested for Growth inhibition of the Human T-lymphoblastic Leukemia cell line CCRF-CEM; type: functional, cell-based
FaDu [6] = assay: The compound was tested for Growth inhibition of the human squamous cell carcinoma FaDu cells; type: functional, cell-based
FaDu [7] = assay: Protection by 50 uM Hx (Hypoxanthine) against the growth inhibition of FaDu cells induced by the compound; type: functional, Homo sapiens; parameters: scale not given: the % may be the effect or the level left
FaDu [8] = assay: The compound was tested for growth inhibition against FaDu cells; type: functional, Homo sapiens; parameters: scale not given: the % may be the effect or the level left
A253 cell line = assay: The compound was tested for Growth inhibition of the human squamous cell carcinoma A253 cells; type: functional, cell-based
CCRF-CEM [9] = assay: The compound was tested for Growth inhibition of Methotrexate-resistant human T-lymphoblastic leukemia cell line CCRF-CEM(sub line R30dm); type: functional, cell-based
FaDu [10] = assay: Protection by 40 uM TdR(thymidine) against the growth inhibition of FaDu cells induced by the compound; type: functional, Homo sapiens; parameters: scale not given: the % may be the effect or the level left
[11] = Ratio of Vmax to Km
FaDu [12] = assay: Protection by 10 uM LV(leucovorin) against the growth inhibition of FaDu cells induced by the compound; type: functional, Homo sapiens; parameters: scale not given: the % may be the effect or the level left
CCRF-CEM [13] = assay: Compound was tested for Growth inhibition of the Human T-lymphoblastic Leukemia cell line CCRF-CEM; type: functional, cell-based
FaDu [14] = assay: Protection by combination of 50 uM Hx (Hypoxanthine) + 40 uM TdR(thymidine) against the growth inhibition of FaDu cells induced by the compound; type: functional, Homo sapiens; parameters: scale not given: the % may be the effect or the level left
[15] = substrate: Nc1nc(N)c2c(CCc3ccc(C(=O)N[C@@H](CCC(=O)O)C(=O)O)cc3)coc2n1; assay: (§1) Substrate activity against CCRF-CEM human leukemia cell Folyl-polyglutamate synthase
[16] = substrate: Nc1nc(N)c2nc(CNc3ccc(C(=O)N[C@@H](CCC(=O)O)C(=O)O)cc3)cnc2n1; assay: as §1
[17] = substrate: Nc1nc(N)c2c(CCc3ccc(C(=O)N[C@@H](CCC(=O)O)C(=O)O)cc3)coc2n1; assay: (§2) Vmax value for substrate activity against CCRF-CEM human leukemia cell Folyl-polyglutamate synthase; type: cell-based
[18] = substrate: Nc1nc(N)c2nc(CNc3ccc(C(=O)N[C@@H](CCC(=O)O)C(=O)O)cc3)cnc2n1; assay: as §2; type: cell-based
[19] = substrate: Nc1nc(N)c2c(CNCc3ccc(C(=O)N[C@@H](CCC(=O)O)C(=O)O)cc3)coc2n1; assay: as §2; type: cell-based

Nc1nc(N)c2c(CNc3ccc(C(=O)N[C@@H](CCC(=O)O)C(=O)O)cc3)coc2n1
IC50 (Dihydrofolate reductase [1]): 450 nM | IC50 (Thymidylate synthase [2]): > 200000 nM | IC50 (Thymidylate synthase [3]): > 200000 nM | IC50 (Dihydrofolate reductase [4]): 560 nM

Nc1nc(N)c2c(CNCc3ccc(C(=O)N[C@@H](CCC(=O)O)C(=O)O)cc3)coc2n1
IC50 (Dihydrofolate reductase [1]): > 200000 nM | IC50 (Thymidylate synthase [2]): > 200000 nM | EC50 (CCRF-CEM [5]): 48000 nM | IC50 (Dihydrofolate reductase [4]): > 200000 nM

Nc1nc(N)c2c(CCc3ccc(C(=O)N[C@@H](CCC(=O)O)C(=O)O)cc3)coc2n1
EC50 (FaDu [6]): 180 nM | Control (FaDu [7]): 4% | Control (FaDu [8]): 7% | EC50 (A253 cell line): 540 nM | EC50 (CCRF-CEM [9]): 4250 nM | IC50 (Thymidylate synthase [2]): 200000 nM | Control (FaDu [10]): 14% | Ratio [11]: 0.07 | Control (FaDu [12]): 105% | EC50 (CCRF-CEM [13]): 290 nM | Control (FaDu [14]): 107%

Nc1nc(N)c2nc(CNc3ccc(C(=O)N[C@@H](CCC(=O)O)C(=O)O)cc3)cnc2n1
Ratio [11]: 0.21

CN(Cc1cnc2nc(N)nc(N)c2n1)c1ccc(C(=O)N[C@@H](CCC(=O)O)C(=O)O)cc1 [METHOTREXATE]
EC50 (FaDu [6]): 17 nM | Control (FaDu [7]): 6% | Control (FaDu [8]): 2% | EC50 (A253 cell line): 13 nM | Control (FaDu [10]): 8% | Control (FaDu [12]): 96%

B1: Folylpolyglutamate synthase, mitochondrial (Homo sapiens), Q05932 (protein)
chain: MSRARSHLRAALFLAAASARGITTQVAARRGLSAWPVPQEPSMEYQDAVRMLNTLQTNAGYLEQVKRQRGDPQTQLEAMELYLARSGLQVEDLDRLNIIHVTGTKGKGSTCAFTECILRSYGLKTGFFSSPHLVQVRERIRINGQPISPELFTKYFWRLYHRLEETKDGSCVSMPPYFRFLTLMAFHVFLQEKVDLAVVEVGIGGAYDCTNIIRKPVVCGVSSLGIDHTSLLGDTVEKIAWQKGGIFKQGVPAFTVLQPEGPLAVLRDRAQQISCPLYLCPMLEALEEGGPPLTLGLEGEHQRSNAALALQLAHCWLQRQDRHGAGEPKASRPGLLWQLPLAPVFQPTSHMRLGLRNTEWPGRTQVLRRGPLTWYLDGAHTASSAQACVRWFRQALQGRERPSGGPEVRVLLFNATGDRDPAALLKLLQPCQFDYAVFCPNLTEVSSTGNADQQNFTVTLDQVLLRCLEHQQHWNHLDEEQASPDLWSAPSPEPGGSASLLLAPHPPHTCSASSLVFSCISHALQWISQGRDPIFQPPSPPKGLLTHPVAHSGASILREAAAIHVLVTGSLHLVGGVLKLLEPALSQ
Km [15]: 8.5 µM | Km [16]: 4.8 µM | Vmax [17]: 0.65 | Vmax [18]: 1 | Vmax [19]: 0.6
